# In patent US20250092383A1, “COMPOUNDS AND METHODS FOR FBXO22-MEDIATED PROTEIN DEGRADATION” (Northwestern University, priority 2023, published 2025):
# What was measured:
# Format in all cases: cell-based
# FKBP12 (mouse FBXO22) [1] = biological target: T1, FKBP12 (mouse FBXO22) (UniProt P62942+Q78JE5, C226A/C227A); assay: FKBP12 degradation in HEK293T cells expressing mouse FBXO22; details: HEK293T cells
# T1 construct: expressed in transfected cells; host or cells: HEK293T
# Excerpt: (§1) FIGS. 3A-3H show FBXO22 C227 and C228 are involved in 22-SLF-mediated degradation of FKBP12. […] Among 5,650 quantified IA-DTB-modified peptides, four cysteines were identified on FBXO22 (C83, C117, C228, and C365). […] Data are presented as the mean values (n=2 biological independent samples for DMSO treatment; n=3 biological independent samples for 22-SLF Treatment). […] The bag graph represents quantification of the FLAG-FKBP12/HSP90 protein content. Data are presented as mean values (n=2 biological independent samples). […] The bar graph represents quantification of the FLAG-FKBP12/HSP90 protein content. Data are presented as the mean values (n=2 biological independent samples).
# (§2) Intriguingly, the peptide sequence containing the two consecutive cysteines (C227 and C228) is identical between human and mouse (FIG. 3f). To explore whether mouse FBXO22 can facilitate 22-SLF-induced FKBP12 degradation and if the conserved cysteines (C226 and C227 in mouse FBXO22) are pivotal, HEK293T cells expressing mouse FBXO22 wildtype, C226A, C227A, and C226AC227A, were generated.
# FKBP12 (mouse FBXO22) [2] = assay: as above; details: HEK293T cells
# Excerpt: as §1, §2
# FKBP12 (mouse FBXO22) [3] = biological target: T2, FKBP12 (mouse FBXO22) (UniProt P62942+Q78JE5); assay: as above; details: HEK293T cells expressing mouse FBXO22 wildtype
# T2 construct: expressed in transfected cells; host or cells: HEK293T
# T2 sequence (P62942 2-108): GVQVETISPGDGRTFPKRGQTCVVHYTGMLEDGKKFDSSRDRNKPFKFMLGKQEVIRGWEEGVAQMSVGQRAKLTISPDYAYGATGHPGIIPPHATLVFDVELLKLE
# T2 sequence (Q78JE5 whole entry): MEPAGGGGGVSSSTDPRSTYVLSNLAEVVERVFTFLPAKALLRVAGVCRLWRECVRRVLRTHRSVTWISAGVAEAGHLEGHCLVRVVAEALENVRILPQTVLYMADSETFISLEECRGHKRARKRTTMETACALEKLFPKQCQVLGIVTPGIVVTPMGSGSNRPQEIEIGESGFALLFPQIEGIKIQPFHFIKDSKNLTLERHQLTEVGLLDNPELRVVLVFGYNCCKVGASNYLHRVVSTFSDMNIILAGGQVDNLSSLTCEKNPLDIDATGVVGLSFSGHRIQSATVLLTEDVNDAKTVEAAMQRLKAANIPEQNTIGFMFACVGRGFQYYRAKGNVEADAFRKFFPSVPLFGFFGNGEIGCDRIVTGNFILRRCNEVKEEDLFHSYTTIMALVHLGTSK
# T2 sequence (P63208 whole entry partner): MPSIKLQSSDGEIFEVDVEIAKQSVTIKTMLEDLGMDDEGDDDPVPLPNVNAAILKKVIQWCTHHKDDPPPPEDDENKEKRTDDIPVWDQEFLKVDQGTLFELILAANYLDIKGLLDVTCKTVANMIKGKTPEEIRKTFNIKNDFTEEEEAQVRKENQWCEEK
# Excerpt: as §1, §2
# FKBP12 [4] = biological target: T3, FKBP12 (Homo sapiens, UniProt P62942); assay: Degradation of endogenous FKBP12 in cancer cell lines, wild type vs FBXO22 knockout
# T3 sequence (P62942 whole entry): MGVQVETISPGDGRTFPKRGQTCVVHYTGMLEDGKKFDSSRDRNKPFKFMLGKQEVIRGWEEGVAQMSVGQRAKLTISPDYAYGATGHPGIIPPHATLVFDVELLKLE
# Procedure: (§3) The bar graph represents quantification of the FLAG-FKBP12/HSP90 protein content. Data are presented as the mean values±s.e.m. […] HEK293T cells expressing HA-FBXO22 were treated with 0.025-15 μM 22-SLF for 8 h. The graph represents quantification of the FLAG-FKBP12/HSP90 protein content. Data are presented as the mean values (n=2 biological independent samples). […] The bar graph represents quantification of the FLAG-FKBP12/HSP90 protein content. KO, knockout; WT, wild type. Data are presented as the mean values (n=2 biological independent samples). […] The bar graph represents quantification of the FLAG-FKBP12/HSP90 protein content. Data are presented as the mean values±s.e.m. […] The result is representative of two independent experiments with similar results. WCL, whole-cell lysate; IP, immunoprecipitate.
# (§4) Data is obtained from Gene Expression Profiling Interactive Analysis (GEPIA). […] KDM4A and KDM4B are two reported substrates of FBXO22.
# (§5) As an F-box protein, FBXO22 is a pivotal player in the context of tumor progression. FBXO22 has many oncogenic functions, including propelling the ubiquitination and subsequent degradation of a diverse spectrum of substrates, such as histone lysine demethylase 4 subfamily KDM4A/B, methylated p53, p21, PTEN, KLF4, and LKB1. […]
# FKBP12 [5] = biological target: T3, FKBP12; assay: MS-based global proteomic analysis in A549 parental and FBXO22 knockout cells (FKBP12); set-up: expressed in transfected cells; details: 2 μM, 24 hours
# Procedure: as §3, §4, §5
# T1 sequence (P62942 2-108): as the sequence (P62942 2-108) above
# T1 sequence (Q78JE5 whole entry C226A/C227A): as the sequence (Q78JE5 whole entry) above, with C226A, C227A counted along it
smiles,measurement,setting,value
CCC(C)(C)C(=O)C(=O)N1CCCC[C@H]1C(=O)O[C@H](CCc1ccc(OC)c(OC)c1)c1cccc(OCC(=O)NCCCOCCOCCOCCCN(C(=O)CCl)C(C(=O)NCc2ccccc2)c2nc3ccccc3s2)c1 (stereo partly drawn) [22-SLF],"FKBP12 degradation, mouse FBXO22 double mutant C226AC227A",FKBP12 (mouse FBXO22) [1],fully blocked the degradation
same,"FKBP12 degradation, mouse FBXO22 single mutants C226A and C227A",FKBP12 (mouse FBXO22) [2],partially impeded degradation
same,"FKBP12 degradation, mouse FBXO22 wildtype",FKBP12 (mouse FBXO22) [3],induced FBKP12 degradation
same,"Degradation of endogenous FKBP12, wild-type cells","FKBP12 [4]; A549, MDA-MB-231 and PC3, 2 μM in A549",promoted degradation of endogenous FKBP12
same,"Degradation of endogenous FKBP12, FBXO22 knockout cells","FKBP12 [4]; A549, MDA-MB-231 and PC3 FBXO22 knockout",abolished upon FBXO22 knockout
same,Selectivity of FKBP12 degradation in global proteomics,FKBP12 [5],"selective degradation of endogenous FKBP12 in FBXO22 wildtype, but not knockout context"
